In US12522602B2, “Derivatives having 2,3-dihydro-1H-indene or 2,3-dihydrobenzofuran moiety or pharmaceutically acceptable salt thereof and pharmaceutical compositions comprising the same” (YUHAN CORPORATION, priority 2019, dated 2026):
pIC50: −log10 of the molar value. Read-outs that look alike come from different tables or passages of the source.

Test system: GM1 production in Jurkat cells
Test: cells
Assay type: cell-based

| Molecule | pIC50 (Homo sapiens, Jurkat, 72 h) | pIC50 (read-out: IC50) |
| --- | --- | --- |
| CCOc1cc(-c2ccc3c(c2)CC(C)(C)C3NC(=O)O[C@@H]2CN3CCC2CC3)ccn1 (stereo partly drawn) [Example 263, (S)-quinuclidin-3-yl (5-(2-ethoxypyridin-4-yl)-2,2-dimethyl-2,3-dihydro-1H-inden-1-yl)carbamate] | 7.46 |  |
| CC1(C)Cc2cc(-c3ccc(F)c(Cl)c3)ccc2C1NC(=O)O[C@@H]1CN2CCC1CC2 (stereo partly drawn) [Example 261, (S)-quinuclidin-3-yl (5-(3-chloro-4-fluorophenyl)-2,2-dimethyl-2,3-dihydro-1H-inden-1-yl)carbamate] | 7.29 |  |
| CC1(C)Cc2ccc(-c3cc(Cl)ccc3Cl)cc2C1NC(=O)O[C@@H]1CN2CCC1CC2 (stereo partly drawn) [Example 71, (S)-quinuclidin-3-yl (6-(2,5-dichlorophenyl)-2,2-dimethyl-2,3-dihydro-1H-inden-1-yl)carbamate] | 7.19 |  |
| Cc1ccc(-c2ccc3c(c2)CC(C)(C)C3NC(=O)O[C@@H]2CN3CCC2CC3)cc1Cl (stereo partly drawn) [Example 259, (S)-quinuclidin-3-yl (5-(3-chloro-4-methylphenyl)-2,2-dimethyl-2,3-dihydro-1H-inden-1-yl)carbamate] | 7.99 |  |
| Cc1cc(-c2ccc3c(c2)CC(C)(C)C3NC(=O)O[C@@H]2CN3CCC2CC3)cc(C(C)(C)C)c1 (stereo partly drawn) [Example 240, (S)-quinuclidin-3-yl (5-(3-(tert-butyl)-5-methylphenyl)-2,2-dimethyl-2,3-dihydro-1H-inden-1-yl)carbamate] | 7.29 |  |
| COc1cc(F)cc(-c2ccc3c(c2)CC(C)(C)C3NC(=O)O[C@@H]2CN3CCC2CC3)c1 (stereo partly drawn) [Example 222, (S)-quinuclidin-3-yl (5-(3-fluoro-5-methoxyphenyl)-2,2-dimethyl-2,3-dihydro-1H-inden-1-yl)carbamate] | 7.59 |  |
| CCCCOc1cccc(-c2cc3c(cc2F)C(NC(=O)O[C@@H]2CN4CCC2CC4)C(C)(C)C3)c1 (stereo partly drawn) [Example 379, (S)-quinuclidin-3-yl (5-(3-butoxyphenyl)-6-fluoro-2,2-dimethyl-2,3-dihydro-1H-inden-1-yl)carbamate] | 7.80 |  |
| COCOc1cccc(-c2ccc3c(c2)CC(C)(C)C3NC(=O)O[C@@H]2CN3CCC2CC3)c1 (stereo partly drawn) [Example 101, (S)-quinuclidin-3-yl (5-(3-(methoxymethoxy)phenyl)-2,2-dimethyl-2,3-dihydro-1H-inden-1-yl)carbamate] | 8.06 |  |
| O=C(NC1CCc2cc(-c3ccc(Cl)cc3)ccc21)O[C@@H]1CN2CCC1CC2 (stereo partly drawn) [Example 2, (S)-quinuclidin-3-yl (5-(4-chlorophenyl)-2,3-dihydro-1H-inden-1-yl)carbamate] | 6.70 |  |
| CC1(C)Cc2ccc(-c3cc(Cl)cc(Cl)c3)cc2C1NC(=O)O[C@@H]1CN2CCC1CC2 (stereo partly drawn) [Example 69, (S)-quinuclidin-3-yl (6-(3,5-dichlorophenyl)-2,2-dimethyl-2,3-dihydro-1H-inden-1-yl)carbamate] | 6.40 |  |
| CC1(C)Cc2cc(-c3cnc4ccccc4c3)ccc2C1NC(=O)O[C@@H]1CN2CCC1CC2 (stereo partly drawn) [Example 143, (S)-quinuclidin-3-yl (2,2-dimethyl-5-(quinolin-3-yl)-2,3-dihydro-1H-inden-1-yl)carbamate] |  | 7.60 |
| CC1(C)Cc2ccc(-c3ccc(F)cc3F)cc2C1NC(=O)O[C@@H]1CN2CCC1CC2 (stereo partly drawn) [Example 63, (S)-quinuclidin-3-yl (6-(2,4-difluorophenyl)-2,2-dimethyl-2,3-dihydro-1H-inden-1-yl)carbamate] | 6.93 |  |
| Cc1cc(-c2ccc3c(c2)CC(C)(C)C3NC(=O)O[C@@H]2CN3CCC2CC3)ccc1F (stereo partly drawn) [Example 255, (S)-quinuclidin-3-yl (5-(4-fluoro-3-methylphenyl)-2,2-dimethyl-2,3-dihydro-1H-inden-1-yl)carbamate] | 7.45 |  |
| COc1ccc(-c2cc3c(cc2OC)C(NC(=O)O[C@@H]2CN4CCC2CC4)C(C)(C)C3)c(F)c1 (stereo partly drawn) [Example 323, (S)-quinuclidin-3-yl (5-(2-fluoro-4-methoxyphenyl)-6-methoxy-2,2-dimethyl-2,3-dihydro-1H-inden-1-yl)carbamate] | 7.10 |  |
| CC(C)COc1ccc(-c2cc3c(cc2F)C(NC(=O)O[C@@H]2CN4CCC2CC4)C(C)(C)C3)cc1 (stereo partly drawn) [Example 362, (S)-quinuclidin-3-yl (6-fluoro-5-(4-isobutoxyphenyl)-2,2-dimethyl-2,3-dihydro-1H-inden-1-yl)carbamate] | 8.60 |  |
| CCCCOc1c(C)cc(-c2ccc3c(c2)CC(CC)(CC)C3NC(=O)O[C@@H]2CN3CCC2CC3)cc1C (stereo partly drawn) [Example 305, (S)-quinuclidin-3-yl (5-(4-butoxy-3,5-dimethylphenyl)-2,2-diethyl-2,3-dihydro-1H-inden-1-yl)carbamate] | 8.01 |  |
| CCc1cccc(-c2ccc3c(c2)CC(C)(C)C3NC(=O)O[C@@H]2CN3CCC2CC3)c1 (stereo partly drawn) [Example 108, (S)-quinuclidin-3-yl (5-(3-ethylphenyl)-2,2-dimethyl-2,3-dihydro-1H-inden-1-yl)carbamate] | 8.12 |  |
| O=C(NC1c2ccc(-c3ccc(C(F)(F)F)cc3)cc2CC12CC2)O[C@@H]1CN2CCC1CC2 (stereo partly drawn) [Example 391, (S)-quinuclidin-3-yl (5′-(4-(trifluoromethyl)phenyl)-1′,3′-dihydrospiro[cyclopropane-1,2′-inden]-1′-yl)carbamate] | 7.26 |  |

| Molecule | pIC50 (Homo sapiens, Jurkat, 72 h) | pIC50 (read-out: IC50) |
| --- | --- | --- |
| O=C(NC1c2ccc(-c3cccc(Cl)c3)cc2CC12CC2)O[C@@H]1CN2CCC1CC2 (stereo partly drawn) [Example 393, (S)-quinuclidin-3-yl (5′-(3-chlorophenyl)-1′,3′-dihydrospiro[cyclopropane-1,2′-inden]-1′-yl)carbamate] | 7.26 |  |
| Cc1ccc(-c2ccc3c(c2)C(NC(=O)O[C@@H]2CN4CCC2CC4)C(C)(C)C3)cc1 (stereo partly drawn) [Example 60, (S)-quinuclidin-3-yl (2,2-dimethyl-6-(p-tolyl)-2,3-dihydro-1H-inden-1-yl)carbamate] | 6.95 |  |
| O=C(NC1CCc2cc(-c3ccc(F)c(F)c3)ccc21)O[C@@H]1CN2CCC1CC2 (stereo partly drawn) [Example 15, (S)-quinuclidin-3-yl (5-(3,4-difluorophenyl)-2,3-dihydro-1H-inden-1-yl)carbamate] | 7.46 |  |
| CC1(C)Cc2cc(-c3cccc(F)c3F)ccc2C1NC(=O)O[C@@H]1CN2CCC1CC2 (stereo partly drawn) [Example 91, (S)-quinuclidin-3-yl (5-(2,3-difluorophenyl)-2,2-dimethyl-2,3-dihydro-1H-inden-1-yl)carbamate] | 7.60 |  |
| CC1(C)Cc2cc(-c3ccccc3OC(F)(F)F)ccc2C1NC(=O)O[C@@H]1CN2CCC1CC2 (stereo partly drawn) [Example 84, (S)-quinuclidin-3-yl (2,2-dimethyl-5-(2-(trifluoromethoxy)phenyl)-2,3-dihydro-1H-inden-1-yl)carbamate] | 8.31 |  |
| CCCOc1cccc(-c2cc3c(cc2F)C(NC(=O)O[C@@H]2CN4CCC2CC4)C(C)(C)C3)c1 (stereo partly drawn) [Example 377, (S)-quinuclidin-3-yl (6-fluoro-2,2-dimethyl-5-(3-propoxyphenyl)-2,3-dihydro-1H-inden-1-yl)carbamate] | 7.45 |  |
| CN(C)c1cc(-c2ccc3c(c2)CC(C)(C)C3NC(=O)O[C@@H]2CN3CCC2CC3)ccc1F (stereo partly drawn) [Example 129, (S)-quinuclidin-3-yl (5-(3-(dimethylamino)-4-fluorophenyl)-2,2-dimethyl-2,3-dihydro-1H-inden-1-yl)carbamate] | 7.43 |  |
| COc1cc2c(cc1-c1cccc(CC(C)C)c1)CC(C)(C)C2NC(=O)O[C@@H]1CN2CCC1CC2 (stereo partly drawn) [Example 335, (S)-quinuclidin-3-yl (5-(3-isobutylphenyl)-6-methoxy-2,2-dimethyl-2,3-dihydro-1H-inden-1-yl)carbamate] | 7.30 |  |
| CCOc1ccc(C)cc1-c1ccc2c(c1)CC(C)(C)C2NC(=O)O[C@@H]1CN2CCC1CC2 (stereo partly drawn) [Example 198, (S)-quinuclidin-3-yl (5-(2-ethoxy-5-methylphenyl)-2,2-dimethyl-2,3-dihydro-1H-inden-1-yl)carbamate] | 7.93 |  |
| Cc1cc(-c2ccc3c(c2)CC(C)(C)C3NC(=O)O[C@@H]2CN3CCC2CC3)co1 (stereo partly drawn) [Example 235, (S)-quinuclidin-3-yl (2,2-dimethyl-5-(5-methylfuran-3-yl)-2,3-dihydro-1H-inden-1-yl)carbamate] | 8.19 |  |
| COc1ccc(C(F)(F)F)cc1-c1ccc2c(c1)CC(C)(C)C2NC(=O)O[C@@H]1CN2CCC1CC2 (stereo partly drawn) [Example 251, (S)-quinuclidin-3-yl (5-(2-methoxy-5-(trifluoromethyl)phenyl)-2,2-dimethyl-2,3-dihydro-1H-inden-1-yl)carbamate] | 8.14 |  |
| Cc1cc(C)cc(-c2ccc3c(c2)CC(C)(C)C3NC(=O)O[C@@H]2CN3CCC2CC3)c1 (stereo partly drawn) [Example 192, (S)-quinuclidin-3-yl (5-(3,5-dimethylphenyl)-2,2-dimethyl-2,3-dihydro-1H-inden-1-yl)carbamate] | 7.59 |  |
| CCC1(CC)Cc2cc(-c3cccc(OC)c3OC)ccc2C1NC(=O)O[C@@H]1CN2CCC1CC2 (stereo partly drawn) [Example 295, (S)-quinuclidin-3-yl (5-(2,3-dimethoxyphenyl)-2,2-diethyl-2,3-dihydro-1H-inden-1-yl)carbamate] | 7.46 |  |
| Cc1cc(-c2ccc3c(c2)CC(C)(C)C3NC(=O)O[C@@H]2CN3CCC2CC3)ccc1OC(F)(F)F (stereo partly drawn) [Example 247, (S)-quinuclidin-3-yl (2,2-dimethyl-5-(3-methyl-4-(trifluoromethoxy)phenyl)-2,3-dihydro-1H-inden-1-yl)carbamate] | 7.39 |  |
| CC(C)Oc1ccc(-c2cc3c(cc2F)C(NC(=O)O[C@@H]2CN4CCC2CC4)C(C)(C)C3)cc1Cl (stereo partly drawn) [Example 359, (S)-quinuclidin-3-yl (5-(3-chloro-4-isopropoxyphenyl)-6-fluoro-2,2-dimethyl-2,3-dihydro-1H-inden-1-yl)carbamate] | 7.48 |  |
| (S)-quinuclidin-3-yl (6-(3-(2-methoxyethoxy)phenyl)-2,2-dimethyl-2,3-dihydrobenzofuran-3-yl)carbamate [Example 411] |  | 7.10 |
| COc1cc2c(cc1-c1ccc(C(C)C)cc1)CC(C)(C)C2NC(=O)O[C@@H]1CN2CCC1CC2 (stereo partly drawn) [Example 314, (S)-quinuclidin-3-yl (5-(4-isopropylphenyl)-6-methoxy-2,2-dimethyl-2,3-dihydro-1H-inden-1-yl)carbamate] | 8.11 |  |
| CC1(C)Cc2ccc(-c3ccc(F)cc3)cc2C1NC(=O)O[C@@H]1CN2CCC1CC2 (stereo partly drawn) [Example 49, (S)-quinuclidin-3-yl (6-(4-fluorophenyl)-2,2-dimethyl-2,3-dihydro-1H-inden-1-yl)carbamate] | 7.21 |  |
